How the values were obtained:
[1] = molecular target: T1, RAB18 protein in LX2 cells (Homo sapiens, UniProt Q9NP72); test: cellular thermal shift assay; assay type: cell-based; settings: 10 µM DATs, 24 h
T1 construct: endogenous RAB18 in human hepatic stellate cell line LX2 (CETSA)

[2] = molecular target: T2, purified RAB18 protein (GFP‐RAB18) (Homo sapiens, UniProt Q9NP72); test: FRAP of RAB18 droplets (also AFM); assay type: binding; settings: 10 µM DATs; 50 µM protein; 50 mM HEPES pH 7.4, 150 mM NaCl; no added CaCl2
T2 construct: GFP-fusion RAB18, expressed in E. coli BL21 (DE3), Ni-NTA purified
T2 sequence (Q9NP72 whole entry, the tested form may be a part): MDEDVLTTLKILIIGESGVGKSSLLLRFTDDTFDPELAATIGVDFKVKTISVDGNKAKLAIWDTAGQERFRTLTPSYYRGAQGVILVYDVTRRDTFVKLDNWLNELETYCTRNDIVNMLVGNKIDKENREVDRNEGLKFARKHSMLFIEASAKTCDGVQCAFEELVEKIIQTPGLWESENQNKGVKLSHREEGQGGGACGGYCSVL

T1 sequence (Q9NP72 1-203): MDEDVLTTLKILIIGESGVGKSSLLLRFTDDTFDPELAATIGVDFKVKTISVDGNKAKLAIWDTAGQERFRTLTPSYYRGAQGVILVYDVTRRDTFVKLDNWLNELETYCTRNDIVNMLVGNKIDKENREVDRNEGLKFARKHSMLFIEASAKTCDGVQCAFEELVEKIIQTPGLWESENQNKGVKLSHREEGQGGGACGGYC

## C=CCSSSCC=C [DATs, Diallyl trisulfides]
[1]
  CETSA: DATs exhibit a strong affinity for RAB18, effectively binding to and stabilizing the conformation of RAB18
[2]
  FRAP recovery percentage: ~ ≈80%

Source: article PMC12140386, “Diallyl Trisulfide From Garlic Regulates RAB18 Phase Separation to Inhibit Lipophagy and Induce Cuproptosis in Hepatic Stellate Cells for Antifibrotic Effects” (Advanced Science, 2025)
